Source: patent US20080038768A1, “Assay for ubiquitin mediated proteolysis” (priority 2006, published 2008)
One block for each compound: values may come before it.

Columns and labels:
USP-2 and UCH-L3 [1] = assay: Downscaling: compatibility of the deubiquitinase assay with HBC and DMSO; assay type: biochemical, human
Procedure: One important factor which has to be tested during downscaling of the assay to the […] (2080 well nanoplates) is the assay's compatibility with hydroxy beta cyclodextrin (HBC) and DMSO. Nanocarriers are coated with HBC in order facilitate re-solubilization of dried test compounds (‘dry screening’) and to reduce adsorption of assay components to the carrier. If HBC interferes with the assay, pre-coated plates can not be used and ‘wet screening’, utilizing compounds dissolved in DMSO, has to be performed. […] Even DMSO concentrations of up to 5% are found to be compatible with the screen. […] These findings support a ‘wet screening’ format for these target family.

USP-2 and UCH-L3 [2] = assay: Inhibition of the deubiquitinases (titration of inhibitor, fluorescence polarization assay); assay type: biochemical, human; conditions: in presence of 5 mM DTT
Procedure: Measurements of polarization and lifetime are performed on the research reader of Evotec OAI (see below). To perform the test, the de-ubiquitinating enzyme is first put into the well and the addition of the substrate triggered the start of the reaction. The enzymatic reaction is stopped by shifting the pH from 7.5 to 5 with the addition of Stop buffer (end concentration of 30 mM malonic acid pH 4.5—see TABLE 1). With this procedure the read-out could be kept stable for several hours.
Cysteine proteases, such as USP-2 and UCH-L3, are sensitive to covalent modification of the active site cystein. […] Ubiquitin aldehyde is a known inhibitor for both enzymes, USP-2 and UCH-L3. […] Using this molecule we analyzed whether addition of DTT can be utilized to mask the activity of covalent active site inhibitors during the screen. When titrating Ubiquitin aldehyde in presence of 5 mM DTT an IC50 value of 100 nM was found.

USP-2 and UCH-L3 [3] = conditions: in absence of reducing agent; cited from earlier work

Compound: hydroxy beta cyclodextrin [HBC]
Effect on enzymatic activity (USP-2 and UCH-L3 [1]; HBC added to the assay): a reduction of the enzymatic activity was observed

IC50 (USP-2 and UCH-L3 [2]): 100 nM
Compound: Ubiquitin aldehyde
Potency (USP-2 and UCH-L3 [3]): pM activity range

Concentration compatible with the screen (USP-2 and UCH-L3 [1]): up to 5% | Interference with the reaction (USP-2 and UCH-L3 [1]; increasing concentrations added to the assay): only a minimal interference
Compound: C[S+](C)[O-] [DMSO]
